Measured values from US8859565B2, “Compound for inhibiting type 5 phosphodiesterase and preparation method thereof” (priority 2010, dated 2014).
Where a name gives a salt, the structure may show the parent alone.

Columns and labels:
[1] = test system: rats having hypertension induced by monocrotaline; conditions: cited from earlier work
PDE5 [2] = biological target: T1, PDE5 (Homo sapiens, UniProt O76074); test: Effect to PDE5 on cAMP (cAMP enzyme immunoassay, EIA); type: biochemical; conditions: 1600 fmol cAMP, PDE5 3u, 30° C., 20 min; 10^−4 to 10^−12 mol·L^−1; p>0.05, S curve cannot be fitted
PDE5 [3] = biological target: T1, PDE5; test: Inhibiting effect to PDE5 degrading cGMP (cGMP enzyme immunoassay, EIA); type: biochemical; conditions: 3200 fmol cGMP, PDE5 3u, 30° C., 20 min; PROBIT regression
pulmonary hypertension = conditions: animal model experiments; cited from earlier work

COc1ccc(CNc2nnc(N3CCC(O)CC3)c3ccc(C#N)cc23)cc1Cl.Cl [E-4010]
Survival rate [1]: can increase the survival rate

CCCc1nn(C)c2c(=O)[nH]c(-c3cc(S(=O)(=O)N4C[C@@H](C)N(C)[C@@H](C)C4)ccc3OCC)nc12 [ZTH, 5-[2-ethoxyphenyl-5-(3,4,5-trimethylpiperazinyl)-sulfonyl]-1-methyl-3-propyl-1,6-dihydro-7H-pyrazolo[4,3-d]pyrimidine-7-ketone citrate]
Effect to PDE5 on cAMP (OD value vs negative control) (PDE5 [2]): no substantial difference in OD value | IC50 (PDE5 [3]): 2.12 nM

CCCOc1ccccc1-c1nc2nn[nH]c2c(=O)[nH]1 [zaprinast]
Effect on pulmonary hypertension (pulmonary hypertension): relatively strong effects to lower pulmonary hypertension
